Test results: patent US9422267B2, “Fused pyrimidine compounds and use thereof” (Medivation Technologies, Inc., priority 2012, dated 2016)
Read-outs that look alike come from different tables or passages of the source.

Columns and labels:
[1] = tested on: Akt phosphorylation induced by IGF-1R in HT-29 cells; test: Western blot analysis of Akt phosphorylation induced by IGF-1R; assay type: cell-based, Human; settings: for phosphorylated AKT levels normalized to actin levels (pAKT/actin): then IGF-1 10 ng/mL 10 min, HT-29
Description: Inhibition of Akt phosphorylation induced by IGF-1R was studied by western blot analysis. Human colon carcinoma HT-29 cells were seeded at a density of 8×10^4 cells/well in a 24-well plate and grown in DME/F12 media containing 10% FBS for 24 h. The cells were then depleted of serum by incubation in DME/F12 media lacking FBS for 24 h. […] […] Lysed cells were centrifuged at 13,000 rpm for 15 min and the protein concentration soluble fraction (supernatant) of each sample was determined using a BCA protein assay (Pierce).

IGF1R = IGF1R (Homo sapiens, UniProt P08069); test: In vitro IGF-1R enzymatic assay (ADP-Glo kinase assay); assay type: biochemical; parameters: purchased Millipore 14-802; settings: activated IGF-1R, 30 nM
Description: IC50 values of the compounds of the invention against IGF-1R and IR were measured in vitro using an ADP-Glo kinase assay Kit (Promega). […] Kinase reactions in both assays were conducted at 30° C. for 20 min with increasing concentrations of compounds of the invention.

[2] = average, read-out: % Inh @ 30 nM Avg
[3] = replicate N1, read-out: % Inh @ 30 nM (N1)
[4] = replicate N2, read-out: % Inh @ 30 nM (N2)

Sequence of IGF1R (P08069 31-1367): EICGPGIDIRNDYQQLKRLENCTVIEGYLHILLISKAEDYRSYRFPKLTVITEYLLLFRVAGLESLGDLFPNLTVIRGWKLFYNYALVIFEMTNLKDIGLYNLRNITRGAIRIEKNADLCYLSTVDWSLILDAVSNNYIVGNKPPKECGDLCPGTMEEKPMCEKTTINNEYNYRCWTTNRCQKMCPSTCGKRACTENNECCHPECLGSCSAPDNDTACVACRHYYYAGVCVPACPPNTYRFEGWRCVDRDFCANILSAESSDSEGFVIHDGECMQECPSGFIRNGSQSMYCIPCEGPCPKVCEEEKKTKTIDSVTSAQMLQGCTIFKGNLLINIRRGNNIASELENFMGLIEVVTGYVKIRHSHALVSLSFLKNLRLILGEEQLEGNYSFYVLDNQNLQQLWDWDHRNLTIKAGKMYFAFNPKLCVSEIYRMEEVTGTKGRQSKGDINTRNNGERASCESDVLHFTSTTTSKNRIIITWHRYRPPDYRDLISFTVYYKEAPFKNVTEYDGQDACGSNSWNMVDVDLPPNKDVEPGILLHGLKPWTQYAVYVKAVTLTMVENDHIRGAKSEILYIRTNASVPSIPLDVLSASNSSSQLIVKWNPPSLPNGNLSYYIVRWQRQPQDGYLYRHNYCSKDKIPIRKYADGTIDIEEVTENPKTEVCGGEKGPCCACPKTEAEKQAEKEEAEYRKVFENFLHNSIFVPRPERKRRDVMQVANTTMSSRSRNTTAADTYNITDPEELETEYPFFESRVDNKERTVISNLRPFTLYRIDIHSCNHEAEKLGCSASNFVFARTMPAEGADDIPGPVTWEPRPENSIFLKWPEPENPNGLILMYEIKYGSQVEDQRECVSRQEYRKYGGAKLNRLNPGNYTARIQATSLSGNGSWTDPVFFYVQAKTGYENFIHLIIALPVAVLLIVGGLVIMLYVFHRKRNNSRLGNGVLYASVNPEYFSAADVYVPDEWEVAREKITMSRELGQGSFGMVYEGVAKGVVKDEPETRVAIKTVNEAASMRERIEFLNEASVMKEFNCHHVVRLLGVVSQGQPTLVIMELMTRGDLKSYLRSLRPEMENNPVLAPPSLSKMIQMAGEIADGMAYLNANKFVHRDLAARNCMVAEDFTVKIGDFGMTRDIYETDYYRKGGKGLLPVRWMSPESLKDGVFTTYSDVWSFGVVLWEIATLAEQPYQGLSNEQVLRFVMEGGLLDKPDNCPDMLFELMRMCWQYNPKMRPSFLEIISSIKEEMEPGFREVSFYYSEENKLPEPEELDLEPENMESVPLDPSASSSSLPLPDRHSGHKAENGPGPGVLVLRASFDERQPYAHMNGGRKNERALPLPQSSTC

SMILES | phosphorylated AKT levels normalized to actin levels (pAKT/actin) ([1]; 100 nM compound 2 h) | phosphorylated AKT levels normalized to actin levels (pAKT/actin) ([1]; 1 nM compound 2 h) | phosphorylated AKT levels normalized to actin levels (pAKT/actin) ([1]; 10 nM compound 2 h) | phosphorylated AKT levels normalized to actin levels (pAKT/actin) ([1]; 0.1 nM compound 2 h) | also measured
O=C(Nc1cncnc1)C1CCCN1c1nc2c(c(Nc3cc(C4CC4)[nH]n3)n1)CCC2 (racemic) [Compound 7, 1-(4-(5-cyclopropyl-1H-pyrazol-3-ylamino)-6,7-dihydro-5H-cyclopenta[d]pyrimidin-2-yl)-N-(pyrimidin-5-yl)pyrrolidine-2-carboxamide] | 1.20 |  |  |  | 
O=C(Nc1cccnc1)C1CCCN1c1nc2c(c(Nc3cc(C4CC4)[nH]n3)n1)CCC2 (single isomer, unassigned) [Compound 3b, 1-(4-(5-cyclopropyl-1H-pyrazol-3-ylamino)-6,7-dihydro-5H-cyclopenta[d]pyrimidin-2-yl)-N-(pyridin-3-yl)pyrrolidine-2-carboxamide] | 0.02 | 1.70 | 0.57 |  | 
O=C(Nc1ccc(F)nc1)C1C(O)CCN1c1nc2c(c(Nc3cc(C4CC4)[nH]n3)n1)CCC2 (single isomer, unassigned) [Compound 11a] |  |  |  |  | inhibition at 0.03 µM (IGF1R; [2]): 13%; inhibition at 0.03 µM (IGF1R; [3]): 17%; inhibition at 0.03 µM (IGF1R; [4]): 10%
O=C(Nc1ccc(F)nc1)C1CCCCN1c1nc2c(c(Nc3cc(C4CCCC4)[nH]n3)n1)CCC2 (single isomer, unassigned) [Compound 17b, 1-(4-(5-cyclopentyl-1H-pyrazol-3-ylamino)-6,7-dihydro-5H-cyclopenta[d]pyrimidin-2-yl)-N-(6-fluoropyridin-3-yl)piperidine-2-carboxamide] |  | 0.99 | 0.95 | 0.83 | 
O=C(Nc1ccc(F)nc1)C1CCCN1c1nc2c(c(Nc3cc(C4CCCC4)[nH]n3)n1)CCC2 (racemic) [Compound 4, 1-(4-(5-cyclopentyl-1H-pyrazol-3-ylamino)-6,7-dihydro-5H-cyclopenta[d]pyrimidin-2-yl)-N-(6-fluoropyridin-3-yl)pyrrolidine-2-carboxamide] | 0.06 |  |  |  | 
O=C(Nc1ccc(F)nc1)C1CCCCN1c1nc2c(c(Nc3cc(C4CC4)[nH]n3)n1)CCC2 (single isomer, unassigned) [Compound 9a, 1-(4-(5-cyclopropyl-1H-pyrazol-3-ylamino)-6,7-dihydro-5H-cyclopenta[d]pyrimidin-2-yl)-N-(6-fluoropyridin-3-yl)piperidine-2-carboxamide] | 0.02 |  | 0.53 |  | 
CC(C)c1cc(Nc2nc(N3CCCC3C(=O)Nc3ccc(F)nc3)nc3c2CCC3)on1 (single isomer, unassigned) [Compound 12a, N-(6-fluoropyridin-3-yl)-1-(4-(3-isopropylisoxazol-5-ylamino)-6,7-dihydro-5H-cyclopenta[d]pyrimidin-2-yl)pyrrolidine-2-carboxamide] |  |  |  |  | inhibition at 0.03 µM (IGF1R; [2]): 20%; inhibition at 0.03 µM (IGF1R; [3]): 19%; inhibition at 0.03 µM (IGF1R; [4]): 20%
O=C(Nc1ccc(F)nc1)C1CCCN1c1nc2c(c(Nc3cc(C4CCCC4)[nH]n3)n1)CCCC2 (single isomer, unassigned) [Compound 15b, 1-(4-(5-cyclopentyl-1H-pyrazol-3-ylamino)-5,6,7,8-tetrahydroquinazolin-2-yl)-N-(6-fluoropyridin-3-yl)pyrrolidine-2-carboxamide] | 0.13 | 0.58 | 0.43 | 0.52 | 
CC(C)c1cc(Nc2nc(N3CCCC3C(=O)Nc3ccc(F)nc3)nc3c2CCCC3)n[nH]1 (single isomer, unassigned) [Compound 13a, N-(6-fluoropyridin-3-yl)-1-(4-(5-isopropyl-1H-pyrazol-3-ylamino)-5,6,7,8-tetrahydroquinazolin-2-yl)pyrrolidine-2-carboxamide] | 0.80 | 0.54 | 0.45 | 0.51 | 
O=C(Nc1cnccn1)C1CCCN1c1nc2c(c(Nc3cc(C4CC4)[nH]n3)n1)CCC2 (single isomer, unassigned) [Compound 6a] |  |  | 1.40 |  | 
O=C(Nc1ccc(F)nc1)C1CCCN1c1nc2c(c(Nc3cc(C4CC4)[nH]n3)n1)CCCC2 (single isomer, unassigned) [Compound 14a, 1-(4-(5-cyclopropyl-1H-pyrazol-3-ylamino)-5,6,7,8-tetrahydroquinazolin-2-yl)-N-(6-fluoropyridin-3-yl)pyrrolidine-2-carboxamide] | 0.35 | 0.51 | 0.43 | 0.73 | 
CC(C)c1cc(Nc2nc(N3CCCC3C(=O)N(C)C)nc3c2CCC3)n[nH]1 (single isomer, unassigned) [Compound 20a, 1-(4-(5-isopropyl-1H-pyrazol-3-ylamino)-6,7-dihydro-5H-cyclopenta[d]pyrimidin-2-yl)-N,N-dimethylpyrrolidine-2-carboxamide] |  |  |  |  | inhibition at 0.03 µM (IGF1R; [2]): 11%
O=C(Nc1cnccn1)C1CCCN1c1nc2c(c(Nc3cc(C4CC4)[nH]n3)n1)CCC2 (racemic) [Compound 6, 1-(4-(5-cyclopropyl-1H-pyrazol-3-ylamino)-6,7-dihydo-5H-cyclopenta[d]pyrimidin-2-yl)-N-(pyrazin-2-yl)pyrrolidine-2-carboxamide] | 0.01 | 0.22 | 0.01 |  | Normalized phosphorylated AKT (relative to actin) levels relative to 0.1 nM compound treatment ([1]; 100 nM): 0.0
CC(C)c1cc(Nc2nc(N3CCCCC3C(=O)Nc3ccc(F)nc3)nc3c2CCC3)n[nH]1 (single isomer, unassigned) [Compound 16b, N-(6-fluoropyridin-3-yl)-1-(4-(5-isopropyl-1H-pyrazol-3-ylamino)-6,7-dihydro-5H-cyclopenta[d]pyrimidin-2-yl)piperidine-2-carboxamide] | 0.01 | 0.51 | 0.15 | 0.53 | 
O=C(Nc1ccc(F)nc1)C1CCCN1c1nc2c(c(Nc3cc(C4CC4)[nH]n3)n1)CCC2 (single isomer, unassigned) [Compound 2a, 1-(4-(5-cyclopropyl-1H-pyrazol-3-ylamino)-6,7-dihydro-5H-cyclopenta[d]pyrimidin-2-yl)-N-(6-fluoropyridin-3-yl)pyrrolidine-2-carboxamide] |  |  |  | 1.70 | 
O=C(Nc1ccc(F)nc1)C1CCCCN1c1nc2c(c(Nc3cc(C4CC4)[nH]n3)n1)CCC2 (racemic) [Compound 9, 1-(4-(5-cyclopropyl-1H-pyrazol-3-ylamino)-6,7-dihydro-5H-cyclopenta[d]pyrimidin-2-yl)-N-(6-fluoropyridin-3-yl)piperidine-2-carboxamide] | 0.00 | 0.71 | 0.07 | 0.67 | 
O=C(Nc1ccc(F)nc1)C1C(O)CCN1c1nc2c(c(Nc3cc(C4CC4)[nH]n3)n1)CCC2 (single isomer, unassigned) [Compound 11b, 1-(4-(5-cyclopropyl-1H-pyrazol-3-ylamino)-6,7-dihydro-5H-cyclopenta[d]pyrimidin-2-yl)-N-(6-fluoropyridin-3-yl)-3-hydroxypyrrolidine-2-carboxamide] | 0.33 |  |  |  | 
O=C(Nc1ccc(F)nc1)C1CCCN1c1nc2c(c(Nc3cc(C4CC4)[nH]n3)n1)CCC2 (racemic) [Compound 2, 1-(4-(5-cyclopropyl-1H-pyrazol-3-ylamino)-6,7-dihydro-5H-cyclopenta[d]pyrimidin-2-yl)-N-(6-fluoropyridin-3-yl)pyrrolidine-2-carboxamide] | 0.00 | 0.91 | 0.07 |  | 
O=C(Nc1ccc(F)nc1)C1CCCN1c1nc2c(c(Nc3cc(C4CCCC4)[nH]n3)n1)CCC2 (single isomer, unassigned) [Compound 4b, 1-(4-(5-cyclopentyl-1H-pyrazol-3-ylamino)-6,7-dihydro-5H-cyclopenta[d]pyrimidin-2-yl)-N-(6-fluoropyridin-3-yl)pyrrolidine-2-carboxamide] | 0.20 |  |  |  | 
